Experimental data from US20130071854A1, “METHODS FOR THE IDENTIFICATION AND CHARACTERIZATION OF HDAC INTERACTING COMPOUNDS” (priority 2009, published 2013).
Like-named read-outs stand apart in the source and are kept apart here.

Columns and labels:
[1] = target: T1, HDAC2 (Homo sapiens, UniProt Q92769); assay: Chemoproteomic binding profiling, K562 cell extract, SAHA/ITF2357 probe matrix (Kd app); settings: protein HDAC2; class I HDAC
T1 construct: used to probe endogenous HDACs in K562 whole cell extracts; endogenous in cells

[2] = target: T2, HDAC3 (Homo sapiens, UniProt O15379); assay: as above; settings: for Kd: protein HDAC3, NCoR complex
T2 construct: used to probe endogenous HDACs in K562 whole cell extracts; endogenous in cells
T2 sequence (O15379 whole entry): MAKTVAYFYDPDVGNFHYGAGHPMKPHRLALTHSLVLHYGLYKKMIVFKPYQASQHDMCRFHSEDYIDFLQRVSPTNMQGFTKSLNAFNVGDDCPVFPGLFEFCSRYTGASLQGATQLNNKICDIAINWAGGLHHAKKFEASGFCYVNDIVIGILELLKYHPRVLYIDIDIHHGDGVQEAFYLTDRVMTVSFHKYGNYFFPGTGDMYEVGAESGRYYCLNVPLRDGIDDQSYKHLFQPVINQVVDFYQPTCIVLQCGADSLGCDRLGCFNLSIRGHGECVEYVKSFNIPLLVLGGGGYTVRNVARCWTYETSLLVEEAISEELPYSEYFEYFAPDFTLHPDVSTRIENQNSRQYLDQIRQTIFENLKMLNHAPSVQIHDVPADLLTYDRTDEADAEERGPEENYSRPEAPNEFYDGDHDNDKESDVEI
T2 sequence (O75376 whole entry partner): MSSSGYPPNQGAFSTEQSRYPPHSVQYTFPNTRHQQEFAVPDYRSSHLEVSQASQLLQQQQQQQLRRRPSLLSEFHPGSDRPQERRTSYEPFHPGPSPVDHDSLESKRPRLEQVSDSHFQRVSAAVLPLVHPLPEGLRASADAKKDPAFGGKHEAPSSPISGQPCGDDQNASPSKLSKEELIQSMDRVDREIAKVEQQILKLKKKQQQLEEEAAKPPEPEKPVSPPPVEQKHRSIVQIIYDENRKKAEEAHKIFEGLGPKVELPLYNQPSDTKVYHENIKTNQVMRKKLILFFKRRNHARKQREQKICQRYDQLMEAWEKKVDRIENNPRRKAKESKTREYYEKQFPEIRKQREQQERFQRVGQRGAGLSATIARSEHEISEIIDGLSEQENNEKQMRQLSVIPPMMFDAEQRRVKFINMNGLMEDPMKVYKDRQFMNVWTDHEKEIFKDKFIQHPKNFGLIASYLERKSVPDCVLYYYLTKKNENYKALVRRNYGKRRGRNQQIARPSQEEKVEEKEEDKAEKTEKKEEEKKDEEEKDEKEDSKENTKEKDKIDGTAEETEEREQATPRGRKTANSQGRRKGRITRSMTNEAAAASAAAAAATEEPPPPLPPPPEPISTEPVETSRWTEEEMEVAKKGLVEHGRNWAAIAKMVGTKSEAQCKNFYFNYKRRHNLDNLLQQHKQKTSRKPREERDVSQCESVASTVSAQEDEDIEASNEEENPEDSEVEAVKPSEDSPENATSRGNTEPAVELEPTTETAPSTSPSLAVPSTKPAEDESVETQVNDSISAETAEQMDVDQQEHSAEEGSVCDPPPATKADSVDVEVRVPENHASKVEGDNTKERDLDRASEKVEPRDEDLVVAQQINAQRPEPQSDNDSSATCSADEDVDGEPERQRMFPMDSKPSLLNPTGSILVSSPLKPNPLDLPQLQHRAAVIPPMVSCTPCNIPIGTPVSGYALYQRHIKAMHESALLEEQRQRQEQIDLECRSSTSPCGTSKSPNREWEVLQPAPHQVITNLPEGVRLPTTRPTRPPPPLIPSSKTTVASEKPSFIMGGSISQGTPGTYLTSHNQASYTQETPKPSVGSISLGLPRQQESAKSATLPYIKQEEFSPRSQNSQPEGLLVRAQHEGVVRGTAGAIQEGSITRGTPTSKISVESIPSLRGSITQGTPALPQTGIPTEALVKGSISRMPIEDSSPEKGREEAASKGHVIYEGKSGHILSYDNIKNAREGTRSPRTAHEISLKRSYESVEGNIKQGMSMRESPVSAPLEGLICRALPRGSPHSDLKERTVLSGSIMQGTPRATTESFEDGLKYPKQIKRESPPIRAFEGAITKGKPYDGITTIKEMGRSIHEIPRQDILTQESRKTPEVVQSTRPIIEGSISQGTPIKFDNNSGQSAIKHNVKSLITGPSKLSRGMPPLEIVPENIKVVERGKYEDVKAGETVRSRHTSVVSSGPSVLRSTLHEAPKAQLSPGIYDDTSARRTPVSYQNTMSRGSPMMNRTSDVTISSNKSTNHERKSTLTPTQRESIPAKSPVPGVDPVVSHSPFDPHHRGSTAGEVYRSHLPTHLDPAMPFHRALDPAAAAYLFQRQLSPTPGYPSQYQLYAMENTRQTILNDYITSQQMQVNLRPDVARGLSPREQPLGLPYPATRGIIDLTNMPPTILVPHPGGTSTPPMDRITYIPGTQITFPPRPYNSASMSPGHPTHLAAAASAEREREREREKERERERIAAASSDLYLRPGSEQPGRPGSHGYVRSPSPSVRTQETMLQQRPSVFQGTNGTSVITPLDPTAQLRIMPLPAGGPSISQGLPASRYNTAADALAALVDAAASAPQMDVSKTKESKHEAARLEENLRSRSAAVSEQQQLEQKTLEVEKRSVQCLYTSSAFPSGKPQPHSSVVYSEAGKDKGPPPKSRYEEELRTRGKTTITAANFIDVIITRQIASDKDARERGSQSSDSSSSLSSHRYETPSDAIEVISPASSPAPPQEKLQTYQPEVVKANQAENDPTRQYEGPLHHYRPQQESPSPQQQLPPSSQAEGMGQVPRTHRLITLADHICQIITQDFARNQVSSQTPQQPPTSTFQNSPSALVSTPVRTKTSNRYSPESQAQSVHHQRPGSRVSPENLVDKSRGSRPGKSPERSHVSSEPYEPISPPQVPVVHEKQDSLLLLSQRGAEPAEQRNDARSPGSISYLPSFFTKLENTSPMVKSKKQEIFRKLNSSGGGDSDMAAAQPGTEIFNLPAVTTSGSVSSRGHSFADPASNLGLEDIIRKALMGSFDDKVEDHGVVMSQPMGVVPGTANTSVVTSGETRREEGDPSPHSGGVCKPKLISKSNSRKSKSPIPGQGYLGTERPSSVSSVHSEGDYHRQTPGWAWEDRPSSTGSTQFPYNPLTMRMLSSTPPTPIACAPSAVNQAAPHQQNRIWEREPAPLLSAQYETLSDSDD
T2 sequence (O60907 whole entry partner): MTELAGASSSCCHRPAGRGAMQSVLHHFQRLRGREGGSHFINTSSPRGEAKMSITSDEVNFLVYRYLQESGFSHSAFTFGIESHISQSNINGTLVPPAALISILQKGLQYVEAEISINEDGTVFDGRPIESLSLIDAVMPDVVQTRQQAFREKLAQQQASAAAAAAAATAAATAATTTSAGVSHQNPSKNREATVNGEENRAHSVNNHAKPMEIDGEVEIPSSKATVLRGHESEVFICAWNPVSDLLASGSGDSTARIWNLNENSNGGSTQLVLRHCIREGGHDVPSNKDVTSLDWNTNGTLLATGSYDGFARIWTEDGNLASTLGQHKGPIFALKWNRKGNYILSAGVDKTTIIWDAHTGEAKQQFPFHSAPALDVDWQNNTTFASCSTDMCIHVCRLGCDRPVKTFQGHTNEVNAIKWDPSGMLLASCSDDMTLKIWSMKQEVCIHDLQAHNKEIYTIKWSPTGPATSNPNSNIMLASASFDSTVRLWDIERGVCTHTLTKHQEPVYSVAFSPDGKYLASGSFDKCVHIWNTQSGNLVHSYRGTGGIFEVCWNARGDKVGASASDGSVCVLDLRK
T2 sequence (Q9BZK7 whole entry partner): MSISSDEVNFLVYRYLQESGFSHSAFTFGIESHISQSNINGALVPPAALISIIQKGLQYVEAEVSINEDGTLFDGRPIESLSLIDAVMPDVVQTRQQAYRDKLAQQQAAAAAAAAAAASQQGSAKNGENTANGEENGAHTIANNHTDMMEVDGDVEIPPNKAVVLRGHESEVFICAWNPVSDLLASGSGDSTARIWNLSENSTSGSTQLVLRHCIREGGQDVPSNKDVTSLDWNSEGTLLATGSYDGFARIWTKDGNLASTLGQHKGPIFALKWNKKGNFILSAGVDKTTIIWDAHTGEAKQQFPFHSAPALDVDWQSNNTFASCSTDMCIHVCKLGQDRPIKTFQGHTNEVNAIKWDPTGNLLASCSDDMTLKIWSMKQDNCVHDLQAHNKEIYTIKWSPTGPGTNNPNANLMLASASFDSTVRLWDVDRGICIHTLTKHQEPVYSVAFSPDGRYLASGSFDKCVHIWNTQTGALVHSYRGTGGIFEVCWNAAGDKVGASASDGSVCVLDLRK
T2 sequence (Q13227 whole entry partner): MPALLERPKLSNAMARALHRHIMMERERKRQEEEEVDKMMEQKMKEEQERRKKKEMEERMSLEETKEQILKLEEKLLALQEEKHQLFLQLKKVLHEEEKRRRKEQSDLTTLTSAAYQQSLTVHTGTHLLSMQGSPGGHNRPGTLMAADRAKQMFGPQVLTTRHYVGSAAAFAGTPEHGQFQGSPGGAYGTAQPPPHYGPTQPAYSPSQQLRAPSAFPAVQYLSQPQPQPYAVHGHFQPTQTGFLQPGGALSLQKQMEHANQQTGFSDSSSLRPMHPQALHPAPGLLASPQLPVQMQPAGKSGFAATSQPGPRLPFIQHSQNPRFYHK

[3] = target: T3, HDAC8 (Homo sapiens, UniProt Q9BY41); assay: as above; settings: protein HDAC8; class I HDAC
T3 construct: used to probe endogenous HDACs in K562 whole cell extracts; endogenous in cells

[4] = target: HDAC3-NCoR complex (Homo sapiens, UniProt O15379); assay: as above
HDAC3-NCoR complex, sequence (O15379 whole entry, one chain of several): as the sequence (O15379 whole entry) above

[5] = target: MiDAC complex (HDAC1/2, DNTTIP1, CDYL, MIDEAS) (Homo sapiens, UniProt Q13547+Q92769); assay: as above; parameters: rows headed: Kd^app CDYL; other: protein CDYL; MiDAC complex; settings: protein CDYL
[6] = target: T4, ALDH2 (Homo sapiens, UniProt P05091); assay: Competition binding assay in cell lysate, affinity matrix, MS
T4 construct: endogenous in cells
T4 sequence (P05091 18-517): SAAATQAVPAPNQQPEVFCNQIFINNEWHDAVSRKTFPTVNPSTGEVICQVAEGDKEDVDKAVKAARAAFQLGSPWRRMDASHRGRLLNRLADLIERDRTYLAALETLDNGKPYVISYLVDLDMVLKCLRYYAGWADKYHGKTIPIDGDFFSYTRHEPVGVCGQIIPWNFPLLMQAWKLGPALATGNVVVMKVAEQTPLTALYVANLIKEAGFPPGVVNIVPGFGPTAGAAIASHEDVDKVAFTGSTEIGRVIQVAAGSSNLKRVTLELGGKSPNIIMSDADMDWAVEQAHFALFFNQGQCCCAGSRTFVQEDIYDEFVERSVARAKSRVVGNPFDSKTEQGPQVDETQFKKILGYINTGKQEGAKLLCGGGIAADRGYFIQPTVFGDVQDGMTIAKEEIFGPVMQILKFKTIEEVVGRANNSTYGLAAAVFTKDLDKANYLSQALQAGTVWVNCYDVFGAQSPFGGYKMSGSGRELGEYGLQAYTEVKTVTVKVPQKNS

[7] = target: T5, BZW2 (Homo sapiens, UniProt Q9Y6E2); assay: as above
T5 construct: endogenous in cells
T5 sequence (Q9Y6E2 1-419): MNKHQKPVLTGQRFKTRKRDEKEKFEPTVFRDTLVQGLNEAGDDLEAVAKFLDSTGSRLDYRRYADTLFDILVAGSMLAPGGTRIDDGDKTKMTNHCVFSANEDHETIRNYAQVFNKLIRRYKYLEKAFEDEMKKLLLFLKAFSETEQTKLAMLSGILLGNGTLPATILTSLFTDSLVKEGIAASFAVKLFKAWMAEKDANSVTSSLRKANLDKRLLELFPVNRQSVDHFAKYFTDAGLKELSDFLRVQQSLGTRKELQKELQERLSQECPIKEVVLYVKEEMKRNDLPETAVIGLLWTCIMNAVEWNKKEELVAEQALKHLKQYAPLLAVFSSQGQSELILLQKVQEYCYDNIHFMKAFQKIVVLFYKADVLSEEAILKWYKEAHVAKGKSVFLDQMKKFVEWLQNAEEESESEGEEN

[8] = target: T6, HSPD1 (Homo sapiens, UniProt P10809); assay: as above
T6 construct: endogenous in cells
T6 sequence (P10809 27-573): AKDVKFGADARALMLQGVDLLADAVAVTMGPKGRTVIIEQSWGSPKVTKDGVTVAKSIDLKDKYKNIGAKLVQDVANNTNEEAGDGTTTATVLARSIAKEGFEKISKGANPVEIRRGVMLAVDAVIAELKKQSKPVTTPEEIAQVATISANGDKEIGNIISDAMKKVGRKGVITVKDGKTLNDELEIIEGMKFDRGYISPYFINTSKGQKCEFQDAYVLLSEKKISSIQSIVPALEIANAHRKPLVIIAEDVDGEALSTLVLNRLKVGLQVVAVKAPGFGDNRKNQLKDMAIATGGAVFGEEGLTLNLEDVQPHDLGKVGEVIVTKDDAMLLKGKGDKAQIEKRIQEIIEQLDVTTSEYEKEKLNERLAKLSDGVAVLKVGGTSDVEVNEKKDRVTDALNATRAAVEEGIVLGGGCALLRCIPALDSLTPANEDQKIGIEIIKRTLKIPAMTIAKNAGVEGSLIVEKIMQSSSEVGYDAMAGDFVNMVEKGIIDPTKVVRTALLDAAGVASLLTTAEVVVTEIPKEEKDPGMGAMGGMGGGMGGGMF

[9] = target: T7, PPP4C (Homo sapiens, UniProt P60510); assay: as above
T7 construct: endogenous in cells
T7 sequence (P60510 1-307): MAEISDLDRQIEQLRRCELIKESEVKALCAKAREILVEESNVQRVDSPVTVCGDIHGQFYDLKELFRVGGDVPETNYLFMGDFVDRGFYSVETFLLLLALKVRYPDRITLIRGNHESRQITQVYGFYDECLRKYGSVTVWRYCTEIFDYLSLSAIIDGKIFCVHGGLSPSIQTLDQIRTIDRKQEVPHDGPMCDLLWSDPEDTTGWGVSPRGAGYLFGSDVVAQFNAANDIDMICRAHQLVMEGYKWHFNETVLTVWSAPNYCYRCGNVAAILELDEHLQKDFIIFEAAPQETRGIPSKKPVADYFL

[10] = target: T8, PTER (Homo sapiens, UniProt Q96BW5); assay: as above
T8 construct: endogenous in cells
T8 sequence (Q96BW5 1-349): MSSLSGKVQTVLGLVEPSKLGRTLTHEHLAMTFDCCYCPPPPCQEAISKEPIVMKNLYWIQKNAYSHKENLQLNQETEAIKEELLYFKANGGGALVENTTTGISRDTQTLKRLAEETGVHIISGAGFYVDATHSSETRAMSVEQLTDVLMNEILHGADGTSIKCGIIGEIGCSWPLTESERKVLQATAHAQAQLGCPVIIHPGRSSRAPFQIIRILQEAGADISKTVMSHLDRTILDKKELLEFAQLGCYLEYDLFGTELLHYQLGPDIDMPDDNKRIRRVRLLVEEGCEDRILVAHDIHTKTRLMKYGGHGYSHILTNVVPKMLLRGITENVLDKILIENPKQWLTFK

[11] = test system: DNTTIP1; assay: as above; settings: K-562 cell lysate
[12] = test system: GATAD2B; assay: Competition binding assay in cell lysate, affinity matrix, MS (Mi-2/NuRD interactor); settings: K-562 cell lysate
[13] = test system: MTA2; assay: as above
[14] = test system: SMARCC2; assay: Competition binding assay in cell lysate, affinity matrix, MS (SMRT/NCoR interactor)
[15] = test system: RBBP7; assay: Competition binding assay in cell lysate, affinity matrix, MS (Sin3/Mi2-NuRD interactor); settings: K-562 cell lysate
[16] = protein GPS2, read-out: Kd^app GPS2
[17] = protein NCOR1, read-out: Kd^app NCOR1
[18] = protein NCOR2, read-out: Kd^app NCOR2
[19] = protein TBL1X, read-out: Kd^app TBL1X
[20] = protein TBL1XR1, read-out: Kd^app TBL1XR1
[21] = mix of Jurkat and Ramos cell lysates

| SMILES | Kd [1] [µM] | Kd [2] [µM] | Kd [3] [µM] | Kd [4, 16] [µM] | Kd [4, 17] [µM] | Kd [4, 18] [µM] | Kd [4, 19] [µM] | Kd [4, 20] [µM] | Kd [5] [µM] | IC50 ([8]; read-out: IC50) [µM] | IC50 ([9]; read-out: IC50) [µM] | IC50 [10] [µM] | IC50 [11] [µM] | IC50 [12] [µM] | IC50 ([13]; K-562 cell lysate) [µM] | IC50 ([14]; K-562 cell lysate) [µM] | IC50 [15] [µM] | further results |
| --- | --- | --- | --- | --- | --- | --- | --- | --- | --- | --- | --- | --- | --- | --- | --- | --- | --- | --- |
| Nc1ccccc1NC(=O)CCCCCCC(=O)Nc1ccccc1 [BML-210] | 35 | 7 | > 85 | 4 | 7 | 15 | 4 | 4 | > 85 | – | – | – | – | – | – | – | – | selectivity for HDAC3 over HDAC1/HDAC2 (in words) ([2]; K562 cell extract, compared with SAHA): increase in selectivity for HDAC3 over HDAC1/HDAC2 |
| Nc1ccccc1NC(=O)c1ccc(CNC(=O)OCc2cccnc2)cc1 [MS-275] | – | – | – | – | – | – | – | – | – | ≥ 300 | ≥ 300 | ≥ 300 | 300 | 300 | 300 | 300 | 300 | IC50 ([6]; read-out: IC50): ≥ 300 µM; IC50 ([7]; read-out: IC50): ≥ 300 µM |
| O=C(CCCCCCC(=O)Nc1ccccc1)NO [SAHA, suberoylanilide hydroxamic acid] | – | – | – | – | – | – | – | – | – | ≥ 10 | ≥ 10 | ≥ 10 | 0.48 | 2.5 | 10 | 10 | 10 | IC50 ([6]; IC50, ALDH2, K-562 cell lysate): 0.63 µM; IC50 ([6]; IC50, ALDH2, mix of Jurkat and Ramos cell lysates): 4.81 µM; IC50 ([7]; IC50, BZW2, K-562 cell lysate): 3.07 µM; IC50 ([7]; IC50, BZW2, mix of Jurkat and Ramos cell lysates): 10 µM; IC50 ([8]; IC50, HSPD1, mix of Jurkat and Ramos cell lysates): 10 µM; IC50 ([9]; IC50, PPP4C, mix of Jurkat and Ramos cell lysates): 10 µM; IC50 ([10]; IC50, PTER, mix of Jurkat and Ramos cell lysates): 10 µM; IC50 [13, 21]: 0.53 µM; IC50 [14, 21]: 10 µM |
| CCCCOc1ccc(CC(=O)NO)cc1 [bufexamac] | > 59.7 | 348 | 243 | 599 | > 59.7 | 418 | 542 | 530 | 151 | – | – | – | – | – | – | – | – | – |
